Results as given in PubChem BioAssay AID330 (DTP/NCI, 2004).
Several values for one entry are separate records, joined by “and”; a condition that tells them apart may be missing. Equal entries are not always repeated. Inconclusive results and toxic doses are left out.

Tested on: P388 leukemia ip, CD2F1 mice, survival T/C
Assay: NCI In Vivo Anticancer Drug Screen. Data for tumor model P388 Leukemia (intraperitoneal) in CD2F1 (CDF1) mice
Conditions: endpoint: median survival time, higher = longer survival
Summary of the method: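 Mice carrying the transplanted tumor received test compound or vehicle. Survival was recorded in each group, and the value is the treated-group measurement divided by that of the vehicle-treated control group.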

[1] = dose: 50.0 mg/kg/injection, schedule: Q01DX009 (ip), vehicle: Klucel (hydroxypropylcellulose) (HPC)
[2] = dose: 100.0 mg/kg/injection, schedule: Q01DX009 (ip), vehicle: Klucel (hydroxypropylcellulose) (HPC)
[3] = dose: 200.0 mg/kg/injection, schedule: Q01DX009 (ip), vehicle: Klucel (hydroxypropylcellulose) (HPC)
[4] = dose: 6.25 mg/kg/injection, schedule: Q01DX009 (ip), vehicle: Klucel (hydroxypropylcellulose) (HPC)
[5] = dose: 12.5 mg/kg/injection, schedule: Q01DX009 (ip), vehicle: Klucel (hydroxypropylcellulose) (HPC)
[6] = dose: 25.0 mg/kg/injection, schedule: Q01DX009 (ip), vehicle: Klucel (hydroxypropylcellulose) (HPC)
[7] = dose: 50.0 mg/kg/injection, schedule: Q01DX009 (ip), vehicle: saline
[8] = dose: 100.0 mg/kg/injection, schedule: Q01DX009 (ip), vehicle: saline
[9] = dose: 200.0 mg/kg/injection, schedule: Q01DX009 (ip), vehicle: saline
[10] = dose: 25.0 mg/kg/injection, schedule: Q01DX009 (ip), vehicle: saline with Tween-80
[11] = dose: 50.0 mg/kg/injection, schedule: Q01DX009 (ip), vehicle: saline with Tween-80
[12] = dose: 100.0 mg/kg/injection, schedule: Q01DX009 (ip), vehicle: saline with Tween-80
[13] = dose: 200.0 mg/kg/injection, schedule: Q01DX009 (ip), vehicle: saline with Tween-80

Q: Which results are given for `C[C@]12C=CC(=O)C=C1CC[C@H]1[C@@H]3C[C@@H](O)[C@](O)(C(=O)CO)[C@@]3(C)C[C@H](O)[C@@]12F`?
A: T/C (dose: 100.0 mg/kg/injection, schedule: Q04DX003 (ip), vehicle: Klucel (hydroxypropylcellulose) (HPC)): 100 % of control; T/C (dose: 200.0 mg/kg/injection, schedule: Q04DX003 (ip), vehicle: Klucel (hydroxypropylcellulose) (HPC)): 90 % of control

Q: Which T/C (dose: 100.0 mg/kg/injection, schedule: Q04DX003 (ip), vehicle: saline) does the source give for `c1cc[n+](-c2nc3ccccc3[n-]2)cc1` here?
A: 100 % of control

Q: And the T/C (dose: 200.0 mg/kg/injection, schedule: Q04DX003 (ip), vehicle: saline)?
A: 98 % of control

Q: What about the T/C (dose: 400.0 mg/kg/injection, schedule: Q04DX003 (ip), vehicle: saline) of the same compound?
A: 100 % of control

Q: Which results are given for `NC(=S)N/N=C/c1ccc(C(F)(F)F)cn1`?
A: T/C (dose: 3.8 mg/kg/injection, schedule: Q01DX009 (ip), vehicle: Klucel (hydroxypropylcellulose) (HPC)): 96 % of control; T/C (dose: 5.8 mg/kg/injection, schedule: Q01DX009 (ip), vehicle: Klucel (hydroxypropylcellulose) (HPC)): 93 % of control; T/C (dose: 6.0 mg/kg/injection, schedule: Q01DX009 (ip), vehicle: Klucel (hydroxypropylcellulose) (HPC)): 107 % of control; T/C (dose: 8.8 mg/kg/injection, schedule: Q01DX009 (ip), vehicle: Klucel (hydroxypropylcellulose) (HPC)): 93 % of control; T/C (dose: 8.9 mg/kg/injection, schedule: Q01DX009 (ip), vehicle: Klucel (hydroxypropylcellulose) (HPC)): 114 % of control; T/C (dose: 13.3 mg/kg/injection, schedule: Q01DX009 (ip), vehicle: Klucel (hydroxypropylcellulose) (HPC)): 114 % of control and 93 % of control; T/C (dose: 20.0 mg/kg/injection, schedule: Q01DX009 (ip), vehicle: Klucel (hydroxypropylcellulose) (HPC)): 101 % of control and 121 % of control; T/C (dose: 30.0 mg/kg/injection, schedule: Q01DX009 (ip), vehicle: Klucel (hydroxypropylcellulose) (HPC)): 114 % of control

Q: With `CN(C)Cc1c(N=Nc2cccc3ccccc23)[nH]c2ccccc12` as the compound, how does the T/C [1] read?
A: 106 % of control

Q: What about the T/C [2] of the same compound?
A: 101 % of control

Q: And the T/C [3]?
A: 105 % of control

Q: `COc1ccc(CCN2C(=O)C(=O)N(c3ccc(Cl)c(Cl)c3)C2=O)cc1OC` was tested. Which T/C [1] did it give?
A: 102 % of control

Q: What about the T/C [2] of the same compound?
A: 97 % of control

Q: What about the T/C [3] of the same compound?
A: 103 % of control

Q: Which T/C [4] does the source give for `COC(=O)Nc1cccc(-c2nc3ccc(NC(=O)OC)cc3c(=O)n2-c2ccccc2)c1` here?
A: 111 % of control

Q: And the T/C (dose: 8.0 mg/kg/injection, schedule: Q01DX005 (oral), vehicle: Klucel (hydroxypropylcellulose) (HPC))?
A: 109 % of control and 92 % of control

Q: And the T/C [5]?
A: 112 % of control

Q: What about the T/C (dose: 16.0 mg/kg/injection, schedule: Q01DX005 (oral), vehicle: Klucel (hydroxypropylcellulose) (HPC)) of the same compound?
A: 110 % of control and 111 % of control

Q: And the T/C (dose: 16.0 mg/kg/injection, schedule: Q01DX005 (oral), vehicle: saline)?
A: 108 % of control

Q: And the T/C [6]?
A: 153 % of control

Q: And the T/C (dose: 25.0 mg/kg/injection, schedule: Q01DX009 (ip), vehicle: saline)?
A: 110 % of control

Q: And the T/C (dose: 25.0 mg/kg/injection, schedule: Q01DX009 (oral), vehicle: Klucel (hydroxypropylcellulose) (HPC))?
A: 114 % of control

Q: And the T/C (dose: 32.0 mg/kg/injection, schedule: Q01DX005 (oral), vehicle: Klucel (hydroxypropylcellulose) (HPC))?
A: 112 % of control

Q: And the T/C (dose: 32.0 mg/kg/injection, schedule: Q01DX005 (oral), vehicle: saline)?
A: 121 % of control

Q: What about the T/C [7] of the same compound?
A: 236 % of control

Q: What about the T/C (dose: 50.0 mg/kg/injection, schedule: Q01DX009 (oral), vehicle: Klucel (hydroxypropylcellulose) (HPC)) of the same compound?
A: 118 % of control

Q: And the T/C (dose: 64.0 mg/kg/injection, schedule: Q01DX005 (oral), vehicle: Klucel (hydroxypropylcellulose) (HPC))?
A: 102 % of control

Q: What about the T/C [8] of the same compound?
A: 202 % of control and 236 % of control

Q: And the T/C (dose: 128.0 mg/kg/injection, schedule: Q01DX005 (oral), vehicle: Klucel (hydroxypropylcellulose) (HPC))?
A: 102 % of control

Q: What about the T/C (dose: 128.0 mg/kg/injection, schedule: Q01DX005 (oral), vehicle: saline) of the same compound?
A: 171 % of control

Q: And the T/C (dose: 150.0 mg/kg/injection, schedule: Q01DX009 (ip), vehicle: saline)?
A: 236 % of control

Q: And the T/C (dose: 200.0 mg/kg/injection, schedule: Q01DX009 (oral), vehicle: Klucel (hydroxypropylcellulose) (HPC))?
A: 181 % of control

Q: And the T/C (dose: 400.0 mg/kg/injection, schedule: Q01DX009 (oral), vehicle: Klucel (hydroxypropylcellulose) (HPC))?
A: 183 % of control

Q: What about the T/C (dose: 800.0 mg/kg/injection, schedule: Q01DX009 (oral), vehicle: Klucel (hydroxypropylcellulose) (HPC)) of the same compound?
A: 205 % of control

Q: Which T/C (dose: 50.0 mg/kg/injection, schedule: Q01DX005 (ip), vehicle: saline + Tween-80 + alcohol) does the source give for `CCCCN(Cc1ccccc1)CC(O)CN=Cc1ccc(C=NCC(O)CN(CCCC)Cc2ccccc2)cc1` (stereo not given) here?
A: 102 % of control

Q: What about the T/C (dose: 100.0 mg/kg/injection, schedule: Q01DX005 (ip), vehicle: saline + Tween-80 + alcohol) of the same compound?
A: 107 % of control

Q: What about the T/C (dose: 200.0 mg/kg/injection, schedule: Q01DX005 (ip), vehicle: saline + Tween-80 + alcohol) of the same compound?
A: 98 % of control

Q: `CC1CC(Nc2ccc(NC3=CC(=O)OC(C)C3)cc2)=CC(=O)O1` (stereo not given) was tested. Which T/C (dose: 50.0 mg/kg/injection, schedule: Q01DX005 (ip), vehicle: saline with Tween-80) did it give?
A: 94 % of control

Q: And the T/C (dose: 100.0 mg/kg/injection, schedule: Q01DX005 (ip), vehicle: saline with Tween-80)?
A: 92 % of control

Q: And the T/C (dose: 200.0 mg/kg/injection, schedule: Q01DX005 (ip), vehicle: saline with Tween-80)?
A: 90 % of control

Q: Which T/C [4] does the source give for `C#CC1(O)CC2c3ccc(OC)cc3CCC2(C)C1` (stereo not given) here?
A: 117 % of control

Q: And the T/C [5]?
A: 105 % of control

Q: What about the T/C [6] of the same compound?
A: 112 % of control

Q: Which T/C [7] does the source give for `CSCCCCCCCCCCSC` here?
A: 99 % of control

Q: And the T/C [8]?
A: 100 % of control

Q: What about the T/C [9] of the same compound?
A: 99 % of control

Q: With `CC(N)C(=O)NC1C(O)OC(CO)C(O)C1O` (stereo not given) as the compound, how does the T/C (dose: 25.0 mg/kg/injection, schedule: Q01DX009 (ip), vehicle: water) read?
A: 101 % of control

Q: What about the T/C (dose: 50.0 mg/kg/injection, schedule: Q01DX009 (ip), vehicle: water) of the same compound?
A: 104 % of control

Q: What about the T/C (dose: 100.0 mg/kg/injection, schedule: Q01DX009 (ip), vehicle: water) of the same compound?
A: 111 % of control

Q: What about the T/C (dose: 200.0 mg/kg/injection, schedule: Q01DX009 (ip), vehicle: water) of the same compound?
A: 104 % of control

Q: And the T/C (dose: 400.0 mg/kg/injection, schedule: Q01DX009 (ip), vehicle: water)?
A: 101 % of control

Q: And the T/C (dose: 800.0 mg/kg/injection, schedule: Q01DX009 (ip), vehicle: water)?
A: 93 % of control

Q: `CCOC(=O)N1CCc2nc3ccc(Cl)cc3cc21` was tested. Which T/C [10] did it give?
A: 117 % of control

Q: What about the T/C [11] of the same compound?
A: 98 % of control

Q: What about the T/C [12] of the same compound?
A: 99 % of control

Q: And the T/C [13]?
A: 108 % of control

Q: `CC(=O)OC1CCC2(C)CCC3C(OC(=O)C3(C)[Se]c3ccccc3)C2C1C` (stereo not given) was tested. Which T/C (dose: 100.0 mg/kg/injection, schedule: Q04DX002 (ip), vehicle: saline with Tween-80) did it give?
A: 91 % of control

Q: With `O=C(CSc1ncnc2nc[nH]c12)c1ccccc1` as the compound, how does the T/C [11] read?
A: 90 % of control

Q: What about the T/C [12] of the same compound?
A: 100 % of control

Q: And the T/C [13]?
A: 105 % of control

Q: Which T/C (dose: 55.0 mg/kg/injection, schedule: Q01DX001 (ip), vehicle: saline) does the source give for `CC(C)NCC(N)C(=O)O` (stereo not given) here?
A: 102 % of control

Q: What about the T/C (dose: 110.0 mg/kg/injection, schedule: Q01DX001 (ip), vehicle: saline) of the same compound?
A: 102 % of control

Q: And the T/C (dose: 220.0 mg/kg/injection, schedule: Q01DX001 (ip), vehicle: saline)?
A: 99 % of control

Q: `CC(C)C1CC(O)C(C)C(CN2CCCCC2)C1` (stereo not given) was tested. Which T/C (dose: 50.0 mg/kg/injection, schedule: Q01DX005 (ip), vehicle: Klucel (hydroxypropylcellulose) (HPC)) did it give?
A: 105 % of control

Q: And the T/C (dose: 100.0 mg/kg/injection, schedule: Q01DX005 (ip), vehicle: Klucel (hydroxypropylcellulose) (HPC))?
A: 104 % of control

Q: What does the source list for `CC(O)CCCC(C)O` (stereo not given)?
A: T/C [7]: 102 % of control; T/C [8]: 112 % of control; T/C [9]: 109 % of control

Q: How did the T/C [10] turn out when `NC(C(=O)O)c1ccc(CO)cc1` (stereo not given) was run?
A: 100 % of control

Q: What about the T/C (dose: 50.0 mg/kg/injection, schedule: Q01DX005 (ip), vehicle: water) of the same compound?
A: 86 % of control

Q: What about the T/C [11] of the same compound?
A: 86 % of control

Q: What about the T/C (dose: 100.0 mg/kg/injection, schedule: Q01DX005 (ip), vehicle: water) of the same compound?
A: 107 % of control

Q: And the T/C [12]?
A: 106 % of control

Q: And the T/C (dose: 200.0 mg/kg/injection, schedule: Q01DX005 (ip), vehicle: water)?
A: 97 % of control

Q: How did the T/C (dose: 100.0 mg/kg/injection, schedule: Q01DX001 (ip), vehicle: saline with Tween-80) turn out when `N#C/C(=C/c1ccccc1)CBr` was run?
A: 95 % of control
